Reference: paper PMC3674182 (European journal of medicinal chemistry, 2013)
Converted amounts (≈) assume the structure as drawn.

Columns and labels:
[1] = system: intracellular amastigote form of Leishmania; settings: cited from earlier work
[2] = system: Leishmania donovani axenic amastigotes; assay: in vitro antileishmanial activity, axenic amastigotes; type: cell-based; settings: 72 h, read-out: L. donovani IC50, Amastigotes
[3] = system: methicillin-resistant S. aureus (MRSA, ATCC 33591); assay: in vitro antibacterial activity; type: cell-based; settings: Staphylococcus aureus, ATCC33591|MRSA, read-out: MIC, MRS

For N-demethylconodurine, which “activity against the intracellular amastigote form of Leishmania” value [1] is on record?
The value was “strong activity”.

For conodurine, which “activity against the intracellular amastigote form of Leishmania” value [1] is on record?
Its value is “strong activity”.

For N=C(N)c1ccc(OCCCCCOc2ccc(C(=N)N)cc2)cc1 [Pentamidine], which IC50 [2] is on record?
The IC50 was 2900 nM.

For Oc1ccc(C(c2c[nH]c3ccc(I)cc23)c2c[nH]c3ccc(I)cc23)cc1 [8a, 5,5′-Diiodo-3,3′-(4-hydroxyphenyl-methanediyl)-bisindole], which MIC [3] is on record?
The MIC was 2 to 4.3 µM (≈ 1.18 to 2.54 µg/mL).
